{"source": "patent US20040009904A1", "about": "“APL immunoreactive peptides, conjugates thereof and methods of treatment for aPL antibody-mediated pathologies” (priority 1995, published 2004)", "key": {"[1]": {"tested_on": "ACA-6501", "assay": "Phage-ELISA", "assay_type": "binding, human", "settings": "phage clones coated on wells, affACA-6501 2.5 μg/mL", "experimental": "This method of selecting phage requires very tight binding of the insert to the screening antibody. Phage are directly coated onto wells of a microtitration plate and incubated with the screening antibody. Following washes to remove unbound antibody, an anti-human IgG alkaline phosphatase conjugate is added to bind any aPL antibodies bound to the phage. APL antibodies are then detected by adding a calorimetric substrate to the well which will react with alkaline phosphatase according to methods well known in the art.\nThree mL cultures were prepared from 35 clones previously isolated with affinity purified ACA-6501 in several phage library screens as well as one fUSE 2 phage clone lacking a peptide insert which was used as a control. After centrifugation for 3 minutes at 17,000×g, 100 μL from each phage supernatant (adjusted to −2×10^11 particles/mL, based on absorbance) was added to microtitration plate wells (Falcon, Becton-Dickinson Labware, Lincoln Park, N.Y.) and allowed to incubate overnight at 4° C. Following four washes with TBS 7.4, the plate was blocked with 125 μL of 0.5% BSA/TBS for 1 hour at RT. After another four TBS washes, 100 μL of affACA-6501 previously diluted to 2.5 μg/mL in TBS/BSA was added to each well and allowed to incubate 1 hour at 37° C. Following an additional four washes, 100 μL anti-human IgG diluted 1:1000 in TBS/0.5% Tween was added to each well. After 1 hour at RT, enzyme substrate was added and the incubation allowed to proceed for 2 hours. Following the addition of 50 μL 0.2 M Na2HPO4 to stop the reaction, absorbance was measured at 550 nm in the automated plate absorbance reader. […] The sequences for these clones are showvn in Table 2."}, "[2]": {"tested_on": "ACA-6501", "assay": "Competitive binding peptide ACA ELISA, cardiolipin/β2-GPI-coated plates", "parameters": "species or system human", "settings": "peptide 1 mg/mL, affinity purified antibody", "procedure,_shortened": "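Monomeric peptides at several amounts were preincubated ~1 h at RT with ACA-6501 serum (final 1:400), then added to cardiolipin-coated, fish-gelatin-blocked plates with β2-GPI for 1 h at RT. Bound IgG was detected with alkaline phosphatase anti-human IgG and phenolphthalein monophosphate, read at 550 nm. IC50 was the peptide amount at half-maximal absorbance.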"}}, "note": "Bridge positions count the residues as written; N and C are the ends. Peptide text beside a SMILES is read from it.", "data": [{"smiles": "CC(C)C[C@@H]1NC(=O)[C@H](CC(C)C)NC(=O)[C@H](CC(C)C)NC(=O)[C@@H](NC(=O)[C@@H]2CCCN2C(=O)CNC(=O)[C@H](C)N)CSSC[C@@H](C(=O)N2CCC[C@H]2C(=O)NCC(=O)O)NC(=O)[C@H](CCCNC(=N)N)NC(=O)[C@H](CC(=O)O)NC(=O)[C@@H]2CCCN2C(=O)[C@H](C)NC1=O", "note": "[3B10, AGPCLLLAPDRCPG] (H-AGPCLLLAPDRCPG-OH; disulfide 4-12)", "values": [{"measurement": "signal in the phage-ELISA", "setting": "[1]", "value": "significant signals"}, {"measurement": "Percent Inhibition of AffACA by Peptide Monomers, 6501", "setting": "[2]", "value": 60, "unit": "%"}]}]}
